# Measurements reported in PubChem BioAssay (NCI).
#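 Abbreviation: GI50, concentration required for 50% inhibition of growth. The concentration for full growth arrest is given as TGI.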
# Columns and labels:
# Assay in all cases: DTP human tumour cell line panel, 384-well format
# HOP-62 NSCLC = system: HOP-62 NSCLC
# NCI-H522 lung = system: NCI-H522 lung
# SNB-75 CNS = system: SNB-75 CNS
# SN12C renal = system: SN12C renal
# UACC-62 melanoma = system: UACC-62 melanoma
# OVCAR-4 ovarian = system: OVCAR-4 ovarian
# COLO 205 colon = system: COLO 205 colon
# NCI-H23 lung = system: NCI-H23 lung
# SF-295 CNS = system: SF-295 CNS
# DU-145 prostate = system: DU-145 prostate
# T-47D breast = system: T-47D breast
# NCI-H226 lung = system: NCI-H226 lung
# HL-60(TB) leukemia = system: HL-60(TB) leukemia
# SF-539 CNS = system: SF-539 CNS
# KM12 colon = system: KM12 colon
# NCI-H322M lung = system: NCI-H322M lung
# BT-549 breast = system: BT-549 breast
# U251 glioblastoma = system: U251 glioblastoma
# OVCAR-3 ovarian = system: OVCAR-3 ovarian
# HS 578T breast = system: HS 578T breast
# A549 NSCLC = system: A549 NSCLC
# SF-268 CNS = system: SF-268 CNS
# EKVX NSCLC = system: EKVX NSCLC
# TK-10 renal = system: TK-10 renal
# OVCAR-5 ovarian = system: OVCAR-5 ovarian
# MDA-MB-435 melanoma = system: MDA-MB-435 melanoma
# LOX IMVI melanoma = system: LOX IMVI melanoma
# M14 melanoma = system: M14 melanoma
# HCT-116 colon = system: HCT-116 colon
# A498 renal = system: A498 renal
# OVCAR-8 ovarian = system: OVCAR-8 ovarian
# IGROV1 ovarian = system: IGROV1 ovarian
# UACC-257 melanoma = system: UACC-257 melanoma
# SR leukemia = system: SR leukemia
# SK-OV-3 ovarian = system: SK-OV-3 ovarian
# CAKI-1 renal = system: CAKI-1 renal
# NCI-H460 NSCLC = system: NCI-H460 NSCLC
# MOLT-4 leukemia = system: MOLT-4 leukemia
# MALME-3M melanoma = system: MALME-3M melanoma
# MCF7 breast = system: MCF7 breast
# SK-MEL-28 melanoma = system: SK-MEL-28 melanoma
# ACHN renal = system: ACHN renal
# RXF 393 renal = system: RXF 393 renal
# SK-MEL-5 melanoma = system: SK-MEL-5 melanoma
# HT29 colon = system: HT29 colon
# MDA-MB-468 breast = system: MDA-MB-468 breast
# HOP-92 NSCLC = system: HOP-92 NSCLC
# HCC-2998 colon = system: HCC-2998 colon
# MDA-MB-231 breast = system: MDA-MB-231 breast
# PC-3 prostate = system: PC-3 prostate
# SNB-19 CNS = system: SNB-19 CNS
# NCI/ADR-RES ovarian = system: NCI/ADR-RES ovarian
# HCT-15 colon = system: HCT-15 colon
# RPMI-8226 leukemia = system: RPMI-8226 leukemia
smiles,measurement,setting,value
Cc1ccc(F)c(NC(=O)Nc2ccc(-c3cccc4[nH]nc(N)c34)cc2)c1,GI50,HOP-62 NSCLC,1.94 µM
same,TGI,HOP-62 NSCLC,5.5 µM
same,GI50,NCI-H522 lung,2.05 µM
same,TGI,NCI-H522 lung,3.54 µM
same,GI50,SNB-75 CNS,2.67 µM
same,TGI,SNB-75 CNS,9.2 µM
same,GI50,SN12C renal,1.26 µM
same,TGI,SN12C renal,2.89 µM
same,GI50,UACC-62 melanoma,2.31 µM
same,TGI,UACC-62 melanoma,5.7 µM
same,GI50,OVCAR-4 ovarian,1.6 µM
same,TGI,OVCAR-4 ovarian,3.98 µM
same,GI50,COLO 205 colon,1.93 µM
same,TGI,COLO 205 colon,4.29 µM
same,GI50,NCI-H23 lung,1.71 µM
same,TGI,NCI-H23 lung,3.4 µM
same,GI50,SF-295 CNS,3.17 µM
same,TGI,SF-295 CNS,10.5 µM
same,GI50,DU-145 prostate,1.73 µM
same,TGI,DU-145 prostate,3.55 µM
same,GI50,T-47D breast,2.85 µM
same,TGI,T-47D breast,14.2 µM
same,GI50,NCI-H226 lung,2.44 µM
same,TGI,NCI-H226 lung,9.13 µM
same,GI50,HL-60(TB) leukemia,1.27 µM
same,TGI,HL-60(TB) leukemia,2.54 µM
same,GI50,SF-539 CNS,1.44 µM
same,TGI,SF-539 CNS,3.49 µM
same,GI50,KM12 colon,0.432 µM
same,TGI,KM12 colon,3.87 µM
same,GI50,NCI-H322M lung,2.15 µM
same,TGI,NCI-H322M lung,5.5 µM
same,GI50,BT-549 breast,1.99 µM
same,TGI,BT-549 breast,3.79 µM
same,GI50,U251 glioblastoma,2.27 µM
same,TGI,U251 glioblastoma,4.83 µM
same,GI50,OVCAR-3 ovarian,1.75 µM
same,TGI,OVCAR-3 ovarian,3.25 µM
same,GI50,HS 578T breast,2.19 µM
same,TGI,HS 578T breast,5.31 µM
same,GI50,A549 NSCLC,3.14 µM
same,TGI,A549 NSCLC,9.44 µM
same,GI50,SF-268 CNS,2.3 µM
same,TGI,SF-268 CNS,7.63 µM
same,GI50,EKVX NSCLC,2.13 µM
same,TGI,EKVX NSCLC,4.53 µM
same,GI50,TK-10 renal,2.07 µM
same,TGI,TK-10 renal,5.48 µM
same,GI50,OVCAR-5 ovarian,1.82 µM
same,TGI,OVCAR-5 ovarian,3.89 µM
same,GI50,MDA-MB-435 melanoma,2.16 µM
same,TGI,MDA-MB-435 melanoma,4.25 µM
same,GI50,LOX IMVI melanoma,1.85 µM
same,TGI,LOX IMVI melanoma,3.32 µM
same,GI50,M14 melanoma,1.96 µM
same,TGI,M14 melanoma,4.86 µM
same,GI50,HCT-116 colon,1.99 µM
same,TGI,HCT-116 colon,4.6 µM
same,GI50,A498 renal,2.03 µM
same,TGI,A498 renal,4.58 µM
same,GI50,OVCAR-8 ovarian,2.01 µM
same,TGI,OVCAR-8 ovarian,9.04 µM
same,GI50,IGROV1 ovarian,1.78 µM
same,TGI,IGROV1 ovarian,3.79 µM
same,GI50,UACC-257 melanoma,1.83 µM
same,TGI,UACC-257 melanoma,3.95 µM
same,GI50,SR leukemia,1.49 µM
same,TGI,SR leukemia,2.82 µM
same,GI50,SK-OV-3 ovarian,2.42 µM
same,TGI,SK-OV-3 ovarian,11.6 µM
same,GI50,CAKI-1 renal,2.84 µM
same,TGI,CAKI-1 renal,7.73 µM
same,GI50,NCI-H460 NSCLC,1.61 µM
same,TGI,NCI-H460 NSCLC,3.02 µM
same,GI50,MOLT-4 leukemia,1.91 µM
same,TGI,MOLT-4 leukemia,3.35 µM
same,GI50,MALME-3M melanoma,1.93 µM
same,TGI,MALME-3M melanoma,4.24 µM
same,GI50,MCF7 breast,1.08 µM
same,TGI,MCF7 breast,4.28 µM
same,GI50,SK-MEL-28 melanoma,4.44 µM
same,TGI,SK-MEL-28 melanoma,15.6 µM
same,GI50,ACHN renal,2.13 µM
same,TGI,ACHN renal,5.05 µM
same,GI50,RXF 393 renal,1.56 µM
same,TGI,RXF 393 renal,3.59 µM
same,GI50,SK-MEL-5 melanoma,1.34 µM
same,TGI,SK-MEL-5 melanoma,2.67 µM
same,GI50,HT29 colon,1.77 µM
same,TGI,HT29 colon,4.58 µM
same,GI50,MDA-MB-468 breast,1.8 µM
same,TGI,MDA-MB-468 breast,3.69 µM
same,GI50,HOP-92 NSCLC,3.96 µM
same,TGI,HOP-92 NSCLC,12.6 µM
same,GI50,HCC-2998 colon,1.27 µM
same,TGI,HCC-2998 colon,2.65 µM
same,GI50,MDA-MB-231 breast,3.83 µM
same,TGI,MDA-MB-231 breast,15.2 µM
same,GI50,PC-3 prostate,2.31 µM
same,TGI,PC-3 prostate,4.82 µM
same,GI50,SNB-19 CNS,3.26 µM
same,TGI,SNB-19 CNS,8.97 µM
same,GI50,NCI/ADR-RES ovarian,2.43 µM
same,TGI,NCI/ADR-RES ovarian,9.01 µM
same,GI50,HCT-15 colon,1.82 µM
same,TGI,HCT-15 colon,4.3 µM
same,GI50,RPMI-8226 leukemia,1.76 µM
same,TGI,RPMI-8226 leukemia,3.16 µM
